Measured values reported in US20070249670A1, “Glycogen Phosphorylase Inhibitor Compounds and Pharmaceutical Compositions Thereof” (SMITHKLINE BEECHAM CORPORATION, priority 2004, published 2007).

target: T1, human liver glycogen phosphorylase a (HLGPa) (Homo sapiens, UniProt P06737); assay: Human liver glycogen phosphorylase a enzymatic activity assay (coupled, fluorescent resorufin readout, with and without 10 mM glucose); format: biochemical; settings: human liver glycogen phosphorylase a enzymatic activity assay
T1 construct: creating a full-length cDNA fused at the 5′ end to codons for methionine-glycine-alanine-histidine; 6xHis tag (leader Met-Gly-Ala-His6-Gly-Gly) (N); made in house; host or cells: E. coli (bacterial expression plasmid pTXK1007LTev)
T1 sequence (P06737 2-847 limits assumed): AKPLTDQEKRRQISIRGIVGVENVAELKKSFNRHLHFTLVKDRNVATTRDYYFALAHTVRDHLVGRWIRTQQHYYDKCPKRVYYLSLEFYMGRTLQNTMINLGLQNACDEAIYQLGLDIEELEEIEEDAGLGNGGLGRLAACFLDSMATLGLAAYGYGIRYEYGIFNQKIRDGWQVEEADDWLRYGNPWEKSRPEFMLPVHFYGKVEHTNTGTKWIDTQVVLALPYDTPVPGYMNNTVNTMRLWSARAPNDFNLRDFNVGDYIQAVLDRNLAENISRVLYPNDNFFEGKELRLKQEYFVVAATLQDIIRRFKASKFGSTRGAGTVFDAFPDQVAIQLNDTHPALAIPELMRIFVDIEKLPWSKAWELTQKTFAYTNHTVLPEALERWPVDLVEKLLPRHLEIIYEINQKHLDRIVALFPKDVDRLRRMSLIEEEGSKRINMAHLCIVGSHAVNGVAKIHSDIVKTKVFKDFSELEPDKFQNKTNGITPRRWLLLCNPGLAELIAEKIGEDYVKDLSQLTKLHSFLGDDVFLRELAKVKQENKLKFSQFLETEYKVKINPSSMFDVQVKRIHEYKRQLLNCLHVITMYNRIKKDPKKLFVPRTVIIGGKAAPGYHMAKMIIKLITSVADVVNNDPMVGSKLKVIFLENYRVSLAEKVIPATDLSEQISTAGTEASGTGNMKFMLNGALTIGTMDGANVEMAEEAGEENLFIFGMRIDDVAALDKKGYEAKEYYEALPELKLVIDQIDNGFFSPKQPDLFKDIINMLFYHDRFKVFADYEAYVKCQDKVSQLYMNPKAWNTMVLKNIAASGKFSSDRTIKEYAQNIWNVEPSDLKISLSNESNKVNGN

| IC50 | SMILES |
| --- | --- |
| 0.33 µM | COc1ccc(-c2cc(NC(=O)Nc3c(C)cc(C)cc3C)c(C(=O)O)s2)cc1 [Example 438, 5-[4-(methyloxy)phenyl]-3-({[(2,4,6-trimethylphenyl)amino]carbonyl}amino)-2-thiophenecarboxylic acid] |
| 0.26 µM | Cc1cccc(Cl)c1NC(=O)Nc1cc2ccccc2cc1C(=O)N[C@@H](Cc1ccccc1)C(=O)O [Example 62, N-[3-({[(2-chloro-6-methylphenyl)amino]carbonyl}amino)-2-naphthoyl]-L-phenylalanine] |
| 0.3 µM | Cc1cc(C)c(NC(=O)Nc2cc3ccccc3cc2C(=O)Nc2cccc(C(=O)O)c2)c(C)c1 [Example 495, 3-({[3-({[(2,4,6-trimethylphenyl)amino]carbonyl}amino)-2-naphthalenyl]carbonyl}amino)benzoic acid] |
| 0.67 µM | Cc1cccc(C)c1NC(=O)Nc1cc2ccccc2cc1C(=O)N[C@@H](CC(N)=O)C(=O)O [Example 25, N-[3-({[(2,6-dimethylphenyl)amino]carbonyl}amino)-2-naphthoyl]-L-asparagine] |

More lines, now with the values behind:

| SMILES | IC50 |
| --- | --- |
| Cc1ccccc1CC(=O)Nc1cc2ccccc2cc1C(=O)N[C@H](C(=O)O)C1CCCCC1 [Example 7, (2S)-cyclohexyl{[(3-{[(2-methylphenyl)acetyl]amino}-2-naphthalenyl)carbonyl]amino}ethanoic acid] | 17 µM |
| COc1cc(NC(=O)Nc2c(C)cccc2Cl)c(C(=O)N[C@H](C(=O)O)C2CCCCC2)cc1OC [Example 113, (2S)-{[2-({[(2-chloro-6-methylphenyl)amino]carbonyl}amino)-4,5-dimethoxybenzoyl]amino}(cyclohexyl)acetic acid] | 7.04 µM |
| Cc1cccc(C)c1NC(=O)Nc1cc(F)c(F)cc1C(=O)N[C@@H](CC(C)C)C(=O)O [Example 79, N-[2-({[(2,6-dimethylphenyl)amino]carbonyl}amino)-4,5-difluorobenzoyl]-L-leucine] | 18.7 µM |
| Cc1cc(F)ccc1-c1cc(C(=O)N[C@H](C(=O)O)C2CCCCC2)c(NC(=O)Nc2c(Cl)cccc2Cl)s1 [Example 421, (2S)-cyclohexyl({[2-({[(2,6-dichlorophenyl)amino]carbonyl}amino)-5-(4-fluoro-2-methylphenyl)-3-thienyl]carbonyl}amino)ethanoic acid] | 1.39 µM |
| COc1ccc(-c2cc(NC(=O)Nc3c(Cl)cc(OC(F)(F)F)cc3Cl)c(C(=O)O)s2)cc1 [Example 432, 3-{[({2,6-dichloro-4-[(trifluoromethyl)oxy]phenyl}amino)carbonyl]amino}-5-[4-(methyloxy)phenyl]-2-thiophenecarboxylic acid] | 2.7 µM |
| COc1ccc(-c2nc(C(=O)O)c(NC(=O)Nc3c(C)cc(C)cc3C)s2)cc1 [Example 488, 2-[4-(Methyloxy)phenyl]-5-({[(2,4,6-trimethylphenyl)amino]carbonyl}amino)-1,3-thiazole-4-carboxylic acid] | 8.23 µM |
| Cc1cccc(Cl)c1NC(=O)Nc1cc(F)c(F)cc1C(=O)N[C@@H](CC(=O)O)C(=O)O [Example 66, N-[2-({[(2-chloro-6-methylphenyl)amino]carbonyl}amino)-4,5-difluorobenzoyl]-L-aspartic acid] | 7.16 µM |
| COc1ccc(-c2ccc(C(=O)N[C@H](C(=O)O)[C@@H](C)OC(C)(C)C)c(NC(=O)Nc3c(C)cc(C4CC4)cc3C)c2)cc1 [Example 532, N-{[3-({[(4-cyclopropyl-2,6-dimethylphenyl)amino]carbonyl}amino)-4′-(methyloxy)-4-biphenylyl]carbonyl}-O-(1,1-dimethylethyl)-L-threonine] | 0.011 µM |
| C[C@](NC(=O)c1cc2ccccc2cc1NC(=O)Nc1c(Cl)cc(Cl)cc1Cl)(C(=O)O)C1CCCCC1 [Example 456, 2-cyclohexyl-N-{[3-({[(2,4,6-trichlorophenyl)amino]carbonyl}amino)-2-naphthalenyl]carbonyl}-L-alanine] | 0.23 µM |
| Cc1cccc(C(C)C)c1NC(=O)Nc1sc2c(c1C(=O)N[C@@H](CC(=O)O)C(=O)O)CCCC2 [Example 135, N-{[2-({[(2-isopropyl-6-methylphenyl)amino]carbonyl}amino)-4,5,6,7-tetrahydro-1-benzothien-3-yl]carbonyl}-L-aspartic acid] | 17.9 µM |

same assay, conditions: human liver glycogen phosphorylase a; table does not say whether with or without 10 mM glucose

| IC50 | SMILES |
| --- | --- |
| 0.1 µM | Cc1cc(C)c(NC(=O)Nc2cc3ccccc3cc2C(=O)N[C@H](CC(=O)O)C(=O)O)c(C)c1 [Example 356, N-{[3-({[(2,4,6-trimethylphenyl)amino]carbonyl}amino)-2-naphthalenyl]carbonyl}-D-aspartic acid] |
| 18.4 µM | Cc1cc(C)c(NC(=O)Nc2cc3ccccc3cc2C(=O)N2CCCC[C@H]2C(=O)O)c(C)c1 [Example 257, (2S)-1-{[3-({[(2,4,6-trimethylphenyl)amino]carbonyl}amino)-2-naphthalenyl]carbonyl}-2-piperidinecarboxylic acid] |
| 2.53 µM | Cc1cc(C)c(NC(=O)Nc2cc3ccccc3cc2C(=O)NC2(C(=O)O)CCC(NCc3ccccc3)CC2)c(C)c1 (stereo not shown) [Example 294, 4-[(phenylmethyl)amino]-1-({[3-({[(2,4,6-trimethylphenyl)amino]carbonyl}amino)-2-naphthalenyl]carbonyl}amino)cyclohexanecarboxylic acid] |
| 0.36 µM | CCOC(=O)C[C@H](NC(=O)c1cc2ccccc2cc1NC(=O)Nc1c(C)cc(C)cc1C)C(=O)O [Example 363, (2S)-4-(ethyloxy)-4-oxo-2-({[3-({[(2,4,6-trimethylphenyl)amino]carbonyl}amino)-2-naphthalenyl]carbonyl}amino)butanoic acid] |
| 11.1 µM | CCOC(=O)C[C@H](NC(=O)c1ccc(-c2ccc(OC)cc2)cc1NC(=O)Nc1c(C)cc(C)cc1C)C(=O)OCc1ccccc1 [Example 366, 4-ethyl 1-(phenylmethyl)N-{[4′-(methyloxy)-3-({[(2,4,6-trimethylphenyl)amino]carbonyl}amino)-4-biphenylyl]carbonyl}-L-aspartate] |

The next lines start with the compound.

| SMILES | IC50 |
| --- | --- |
| CCCCN(CCCC)c1ccc(C(=O)N[C@H](C(=O)O)C2CCCCC2)c(NC(=O)Nc2c(C)cc(C)cc2C)c1 [Example 207, (2S)-Cyclohexyl({[4-(dibutylamino)-2-({[(2,4,6-trimethylphenyl)amino]carbonyl}amino)phenyl]carbonyl}amino)ethanoic acid] | 16.1 µM |
| Cc1cc(C)c(NC(=O)Nc2cc(-c3ccc(F)c(F)c3)ccc2C(=O)NC2(C(=O)O)CCCCCCC2)c(C)c1 [Example 227, 1-({[3′,4′-Difluoro-3-({[(2,4,6-trimethylphenyl)amino]carbonyl}amino)-4-biphenylyl]carbonyl}amino)cyclooctanecarboxylic acid] | 0.001 µM |
| O=C(Nc1cc2ccccc2cc1C(=O)N[C@H](C(=O)O)C1CCCCC1)c1ccc(-c2ccc(Cl)cc2Cl)o1 [Example 255, (2S)-cyclohexyl({[3-({[5-(2,4-dichlorophenyl)-2-furanyl]carbonyl}amino)-2-naphthalenyl]carbonyl}amino)ethanoic acid] | 2.6 µM |
| O=C(Nc1c(Cl)cc(Cl)cc1Cl)Nc1c(C(=O)N[C@H](C(=O)O)C2CCCCC2)oc2cc(Br)ccc12 [Example 326, (2S)-({[6-Bromo-3-({[(2,4,6-trichlorophenyl)amino]carbonyl}amino)-1-benzofuran-2-yl]carbonyl}amino)(cyclohexyl)ethanoic acid] | 7.39 µM |
| CC(C)c1cc(C(=O)O)c(NC(=O)Nc2c(Cl)cccc2Cl)s1 [Example 394, 2-({[(2,6-dichlorophenyl)amino]carbonyl}amino)-5-(1-methylethyl)-3-thiophenecarboxylic acid] | 19.3 µM |
| COc1ccc(-c2ccc(C(=O)N[C@H](C(=O)O)[C@@H](C)OC(C)(C)C)c(NC(=O)Nc3c(Cl)cc(OC(F)(F)F)cc3Cl)c2)cc1 [Example 232, N-{[3-{[({2,6-Dichloro-4-[(trifluoromethyl)oxy]phenyl}amino)carbonyl]amino}-4′-(methyloxy)-4-biphenylyl]carbonyl}-O-(1,1-dimethylethyl)-L-threonine] | 0.007 µM |
| O=C(Nc1cc2ccccc2cc1C(=O)NC1(C(=O)O)CCSCC1)Nc1c(Cl)cc(Cl)cc1Cl [Example 284, 4-({[3-({[(2,4,6-Trichlorophenyl)amino]carbonyl}amino)-2-naphthalenyl]carbonyl}amino)tetrahydro-2H-thiopyran-4-carboxylic acid] | 2.31 µM |
| Cc1cc(C(=O)O)c(NC(=O)Nc2c(Cl)cccc2Cl)s1 [Example 388, 2-({[(2,6-dichlorophenyl)amino]carbonyl}amino)-5-methyl-3-thiophenecarboxylic acid] | 19.7 µM |
| COc1ccc(-c2ccc(C(=O)N[C@H](C(=O)O)C3CCCCC3)c(NC(=O)Nc3c(C)cc(C)cc3C)c2)cc1F [Example 237, (2S)-Cyclohexyl({[3′-fluoro-4′-(methyloxy)-3-({[(2,4,6-trimethylphenyl)amino]carbonyl}amino)-4-biphenylyl]carbonyl}amino)ethanoic acid] | 0.02 µM |
